Data taken from patent US20070287738A1, “Substituted Cyanopyridines as protein kinase inhibitors” (priority 2006, published 2007).

target: T1, human PKCθ full length enzyme (Homo sapiens, UniProt Q04759); test: PKCθ IMAP assay; assay type: biochemical; conditions: full length enzyme 1 nM; ATP 6 μM; peptide 100 nM; FP readout; average value
T1 construct: human PKCθ full length enzyme (Panvera Cat# P2996); purchased Panvera P2996
Description: The materials used include the following: human PKCθ full length enzyme (Panvera Cat# P2996); substrate peptide: 5FAM-RFARKGSLRQKNV-OH (Molecular Devices, RP7032); ATP (Sigma Cat # A2383); DTT (Pierce, 20291); 5× kinase reaction buffer (Molecular Devices, R7209); 5× binding buffer A (Molecular Devices, R7282), 5× binding buffer B (Molecular Devices, R7209); IMAP Beads (Molecular Devices, R7284); and 384-well plates (Corning Costar, 3710).
The reaction buffer was prepared by diluting the 5× stock reaction buffer and adding DTT to obtain a concentration of 3.0 mM. The binding buffer was prepared by diluting the 5× binding buffer A. A master mix solution was prepared using a 90% dilution of the reaction buffer containing 2× ATP (12 uM) and 2× peptide (200 nm). Compounds were diluted in DMSO to 20× of the maximum concentration for the IC50 measurement. 27 μl of the master mix solution for each IC50 curve was added to the first column in a 384-well plate and 3 μl of 20× compound in DMSO was added to each well. The final concentration of compound was 2× and 10% DMSO. DMSO was added to the rest of the master mix to increase the concentration to 10%. 10 μl of the master mix containing 10% DMSO was added to the rest of the wells on the plate except the 2nd column. 20 μl was transferred from the first column to the 2nd column.
The compounds were serially diluted in 2:1 ratio starting from the 2nd column. A 2× (2 nM) PKCθ solution was made in the reaction buffer. 10 μl of the PKCθ solution was added to every well to achieve these final concentrations: PKCθ—1 nM; ATP—6 μM; peptide—100 nM; DMSO—5%. Samples were incubated for 25 minutes at room temperature. The binding reagent was prepared by diluting the beads in 1× binding buffer to 800:1. 50 μl of the binding reagent was added to every well and incubated for 20 minutes. FP was measured using Envision2100 (PerkinElmer Life Sciences). Wells with no ATPs and wells with no enzymes were used as controls.

T1 sequence (Q04759 whole entry): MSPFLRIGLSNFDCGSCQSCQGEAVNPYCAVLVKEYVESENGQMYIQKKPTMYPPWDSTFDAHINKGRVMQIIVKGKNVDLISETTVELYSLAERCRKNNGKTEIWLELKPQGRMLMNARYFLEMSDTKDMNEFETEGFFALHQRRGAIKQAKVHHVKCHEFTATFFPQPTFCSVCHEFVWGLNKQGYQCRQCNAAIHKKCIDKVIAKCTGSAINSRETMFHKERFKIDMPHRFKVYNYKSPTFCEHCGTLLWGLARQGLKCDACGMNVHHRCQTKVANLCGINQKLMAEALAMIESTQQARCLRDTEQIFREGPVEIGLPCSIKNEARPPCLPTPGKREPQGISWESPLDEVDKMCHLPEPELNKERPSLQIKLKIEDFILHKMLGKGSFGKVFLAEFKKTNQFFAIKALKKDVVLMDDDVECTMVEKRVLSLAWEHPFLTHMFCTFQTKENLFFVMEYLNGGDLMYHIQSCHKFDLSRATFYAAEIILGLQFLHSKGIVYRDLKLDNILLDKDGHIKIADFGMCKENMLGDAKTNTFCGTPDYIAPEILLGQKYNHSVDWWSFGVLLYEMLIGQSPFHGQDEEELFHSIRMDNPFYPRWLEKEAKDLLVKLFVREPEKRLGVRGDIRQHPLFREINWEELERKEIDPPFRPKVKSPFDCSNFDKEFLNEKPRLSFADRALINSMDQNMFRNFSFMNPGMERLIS

Structure (SMILES)	IC50
COc1ccc(-c2cncc(C#N)c2Nc2cccc(NC(C)=O)c2)cc1OC [Compound 127, N-(3-{[3-cyano-5-(3,4-dimethoxyphenyl)pyridin-4-yl]amino}phenyl) acetamide]	0.57 µM
COc1ccc(-c2cncc(C#N)c2Nc2cccc(N(C)C(C)=O)c2)cc1OC [Compound 128, N-(3-{[3-cyano-5-(3,4-dimethoxyphenyl)pyridin-4-yl]amino}phenyl)-N-methylacetamide]	35 µM
COc1ccc(-c2cncc(C#N)c2Nc2cccc(NS(C)(=O)=O)c2)cc1OC [Compound 129, N-(3-{[3-cyano-5-(3,4-dimethoxyphenyl)pyridin-4-yl]amino}phenyl)methanesulfonamide]	36 µM
COc1cccc(Nc2c(C#N)cncc2-c2ccc(N(C)C)cc2)c1 [Compound 130, 5-[4-(dimethylamino)phenyl]-4-[(3-methoxyphenyl)amino]nicotinonitrile]	0.8 µM
CN(C)c1ccc(-c2cncc(C#N)c2Nc2cccc(F)c2)cc1 [Compound 131, 5-[4-(dimethylamino)phenyl]-4-[(3-fluorophenyl)amino]nicotinonitrile]	0.71 µM
CN(C)c1ccc(-c2cncc(C#N)c2Nc2ccc(C#N)cc2)cc1 [Compound 133, 4-[(4-cyanophenyl)amino]-5-[4-(dimethylamino)phenyl]nicotinonitrile]	30 µM
CN(C)c1ccc(-c2cncc(C#N)c2Nc2ccc(F)c(F)c2)cc1 [Compound 134, 4-[(3,4-difluorophenyl)amino]-5-[4-(dimethylamino)phenyl]nicotinonitrile]	2.03 µM
CN(C)c1ccc(-c2cncc(C#N)c2Nc2cccc([N+](=O)[O-])c2)cc1 [Compound 152, 5-[4-(dimethylamino)phenyl]-4-[(3-nitrophenyl)amino]nicotinonitrile]	7.84 µM
COc1cccc(-c2cncc(C#N)c2Nc2cccc([N+](=O)[O-])c2)c1 [Compound 153, 5-(3-methoxyphenyl)-4-[(3-nitrophenyl)amino]nicotinonitrile]	9.63 µM
COc1cccc(Nc2c(C#N)cncc2-c2cccc(OC)c2)c1 [Compound 154, 5-(3-methoxyphenyl)-4-[(3-methoxyphenyl)amino]nicotinonitrile]	1.73 µM
COc1cccc(-c2cncc(C#N)c2Nc2cccc(F)c2)c1 [Compound 155, 4-[(3-fluorophenyl)amino]-5-(3-methoxyphenyl)nicotinonitrile]	1.57 µM
COc1cccc(-c2cncc(C#N)c2Nc2ccc(C(=O)O)cc2)c1 [Compound 156, 4-{[3-cyano-5-(3-methoxyphenyl)pyridin-4-yl]amino}benzoic acid]	46.4 µM

Further lines, results first:

IC50	Structure (SMILES)
> 95 µM	COc1cccc(-c2cncc(C#N)c2Nc2ccc(C#N)cc2)c1 [Compound 157, 4-[(4-cyanophenyl)amino]-5-(3-methoxyphenyl)nicotinonitrile]
2.4 µM	COc1cccc(-c2cncc(C#N)c2Nc2ccc(F)c(F)c2)c1 [Compound 158, 4-[(3,4-difluorophenyl)amino]-5-(3-methoxyphenyl)nicotinonitrile]
0.31 µM	COc1ccc(-c2cncc(C#N)c2Nc2cccc(O)c2)cc1OC [Compound 159, 5-(3,4-dimethoxyphenyl)-4-[(3-hydroxyphenyl)amino]nicotinonitrile]
5.21 µM	COc1ccc(-c2cncc(C#N)c2Nc2cccc(OCCO)c2)cc1OC [Compound 160, 5-(3,4-dimethoxyphenyl)-4-{[3-(2-hydroxyethoxy)phenyl]amino}nicotinonitrile]
0.82 µM	COc1ccc(-c2cncc(C#N)c2Nc2cccc(OC[C@@H](N)Cc3ccccc3)c2)cc1OC [Compound 161, 4-[(3-{[(2S)-2-amino-3-phenylpropyl]-oxy}-phenyl)amino]-5-(3,4-dimethoxyphenyl)nicotinonitrile]
0.03 µM	N#Cc1cncc(-c2cc3cc(C=O)ccc3s2)c1Nc1cc(O)ccc1Cl [Compound 162, 4-[(2-chloro-5-hydroxyphenyl)amino]-5-(5-formyl-1-benzothein-2-yl)nicotinonitrile]
0.03 µM	N#Cc1cncc(-c2cc3cc(CN4CCCCC4)ccc3s2)c1Nc1cc(O)ccc1Cl [Compound 163, 4-[(2-chloro-5-hydroxyphenyl)amino]-5-[5-(piperidin-1-ylmethyl)-1-benzothien-2-yl]nicotinonitrile]
0.06 µM	N#Cc1cncc(-c2cc3cc(CN4CCCCC4)ccc3s2)c1Nc1cc(OCCO)ccc1Cl [Compound 164]
0.65 µM	Cc1c(N)ccc(Nc2c(C#N)cncc2-c2cc3cc(CN4CCCCC4)ccc3s2)c1C [Compound 165, 4-[(4-amino-2,3-dimethylphenyl)amino]-5-[5-(piperidin-1-ylmethyl)-1-benzothien-2-yl]nicotinonitrile]
1.06 µM	Cc1cc(Nc2c(C#N)cncc2-c2cc3cc(CN4CCCCC4)ccc3s2)ccc1N [Compound 166, 4-[(4-amino-3-methylphenyl)amino]-5-[5-(piperidin-1-ylmethyl)-1-benzothien-2-yl]nicotinonitrile]
0.73 µM	COc1ccc(Cl)c(Nc2c(C#N)cncc2-c2cc3cc(CN4CCCCC4)ccc3o2)c1 [Compound 167, 4-[(2-chloro-5-methoxyphenyl)amino]-5-[5-(piperidin-1-ylmethyl)-1-benzofuran-2-yl]nicotinonitrile]
2.04 µM	Cc1ccc(Cl)c(Nc2c(C#N)cncc2-c2cc3cc(CN4CCCCC4)ccc3o2)c1 [Compound 168, 4-[(2-chloro-5-methylphenyl)amino]-5-[5-(piperidin-1-ylmethyl)-1-benzofuran-2-yl]nicotinonitrile]
0.65 µM	N#Cc1cncc(-c2cc3cc(CN4CCCCC4)ccc3o2)c1Nc1cc(O)ccc1Oc1ccccc1 [Compound 169, 4-[(5-hydroxy-2-phenoxyphenyl)amino]-5-[5-(piperidin-1-ylmethyl)-1-benzofuran-2-yl]nicotinonitrile]
11.9 µM	COc1ccc(-c2cncc(C#N)c2NCc2cccc(CN)c2)cc1OC [Compound 170, 4-{[3-(aminomethyl)benzyl]amino}-5-(3,4-dimethoxyphenyl)nicotinonitrile]
0.27 µM	N#Cc1cncc(-c2cc3cc(CN4CCCCC4)ccc3o2)c1Nc1cc(O)c(Cl)cc1Cl [Compound 171, 4-[(2,4-dichloro-5-hydroxyphenyl)amino]-5-[5-(piperidin-1-ylmethyl)-1-benzofuran-2-yl]nicotinonitrile]
0.16 µM	COc1ccc(Nc2c(C#N)cncc2-c2cc3cc(CN4CCCCC4)ccc3o2)c(C)c1 [Compound 172, 4-[(4-methoxy-2-methylphenyl)amino]-5-[5-(piperidin-1-ylmethyl)-1-benzofuran-2-yl]nicotinonitrile]
